# Earlier results, collected in patent publication US20200337300A1, “GREASE-LIKE GEL FOR REPELLING INSECTS AND PREVENTING UNDESIRABLE BEHAVIOR IN HOOFED ANIMALS” (Pacific Tech Industries, Inc., priority 2010, published 2020).
# Assays:
# [1] = for solubility in organic solvents: most organic solvents
# [2] = pungency of the pure capsaicinoid
Structure (SMILES),solubility in organic solvents [1],solubility in water [1],Scoville heat units [2]
C=CCN=C=S [Allyl isothiocyanate],soluble in most organic solvents,slightly soluble in water,–
COc1cc(CNC(=O)CCCCCCCC(C)C)ccc1O [Homodihydrocapsaicin],–,–,"8,600,000 Scoville heat units"
"COc1cc(CNC(=O)CCCC/C=C/C(C)C)ccc1O [Capsaicin, 8-methyl-N-vanillyl-6-nonenamide]",–,–,"16,000,000 Scoville heat units"
COc1cc(CNC(=O)CCCCC/C=C/C(C)C)ccc1O [Homocapsaicin],–,–,"8,600,000 Scoville heat units"
C=CCS[S+]([O-])CC=C (stereo not shown) [allicin],soluble in most organic solvents,slightly soluble in water,–
